Activity calls are given as the source filed them. No cut-off for these calls is given here.
Experiments:
[1] = target: D(2) dopamine receptor (Rattus norvegicus) (UniProt P61169); assay: (§1) Displacement of [3H]-raclopride from D2 receptor of Wistar rat striatal membranes after 1 hr by liquid scintillation counting; type: cell membranes; details: Membrane
D(1A) dopamine receptor = D(1A) dopamine receptor (Rattus norvegicus, UniProt P18901); assay: Displacement of [3H]-SCH23390 from D1 receptor of Wistar rat striatal membranes after 1 hr by liquid scintillation counting; type: cell membranes, Membrane
D(2) dopamine receptor = D(2) dopamine receptor (Rattus norvegicus, UniProt P61169); assay: as §1; type: cell membranes, Membrane
Rattus norvegicus = species on record: Rattus norvegicus; assay: Selectivity ratio of Ki for D1 receptor of Wistar rat striatal membranes to Ki for D2 receptor of Wistar rat striatal membranes; type: cell membranes; details: Membrane

Chain of D(1A) dopamine receptor (P18901 whole entry): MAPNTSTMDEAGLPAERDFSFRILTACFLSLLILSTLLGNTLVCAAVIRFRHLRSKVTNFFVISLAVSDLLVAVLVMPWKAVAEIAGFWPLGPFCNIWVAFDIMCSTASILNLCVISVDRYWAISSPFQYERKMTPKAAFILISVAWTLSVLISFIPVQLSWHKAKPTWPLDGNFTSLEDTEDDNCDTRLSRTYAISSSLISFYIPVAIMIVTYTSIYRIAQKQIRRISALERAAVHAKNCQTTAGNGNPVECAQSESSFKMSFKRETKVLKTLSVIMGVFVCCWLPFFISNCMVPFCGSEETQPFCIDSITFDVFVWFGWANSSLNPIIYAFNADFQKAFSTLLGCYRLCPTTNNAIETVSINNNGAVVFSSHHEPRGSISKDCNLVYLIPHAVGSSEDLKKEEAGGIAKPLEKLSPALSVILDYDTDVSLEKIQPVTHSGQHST
Chain of D(2) dopamine receptor (Rattus norvegicus) (P61169 whole entry): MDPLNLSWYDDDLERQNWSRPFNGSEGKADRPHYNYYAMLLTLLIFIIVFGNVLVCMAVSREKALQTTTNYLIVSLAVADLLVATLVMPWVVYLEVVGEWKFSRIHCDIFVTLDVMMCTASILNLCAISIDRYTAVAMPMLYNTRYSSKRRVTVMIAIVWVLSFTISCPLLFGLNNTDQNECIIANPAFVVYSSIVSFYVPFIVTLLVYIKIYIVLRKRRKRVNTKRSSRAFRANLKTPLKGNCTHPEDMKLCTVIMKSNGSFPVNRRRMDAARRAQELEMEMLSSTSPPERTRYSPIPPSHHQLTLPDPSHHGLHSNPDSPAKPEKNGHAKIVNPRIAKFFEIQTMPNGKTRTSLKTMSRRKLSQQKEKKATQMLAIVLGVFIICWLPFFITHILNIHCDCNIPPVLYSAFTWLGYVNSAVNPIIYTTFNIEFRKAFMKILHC
Chain of D(2) dopamine receptor (P61169 whole entry): as above

Compound | Activity [1] | Ki (D(1A) dopamine receptor; read-out: Ki) | Ki (D(1A) dopamine receptor; read-out: pKi (converted)) | Ki (D(2) dopamine receptor; read-out: Ki) | Ki (D(2) dopamine receptor; read-out: pKi (converted)) | Ratio Ki (Rattus norvegicus)
COc1cc(CC[N+](C)(C)C)c2ccc3ccccc3c2c1OC | inactive | – | – | – | – | –
COc1cc2c3c(c1OC)-c1ccccc1CC3N(C)CC2 (racemic) [(+/-)-NUCIFERINE] | – | 0.63 µM | 0.587 µM | 0.209 µM | 0.173 µM | –
COc1cc2c3c(c1OC)-c1ccccc1CC3[N+](C)(C)CC2 (configuration not stated) | inactive | – | – | – | – | –
C[N+]1(C)CCc2cc3c(c4c2C1Cc1ccccc1-4)OCO3 (racemic) | inactive | – | – | – | – | –
CN(C)CCc1cc2c(c3c1ccc1ccccc13)OCO2 | – | 6.35 µM | 4.14 µM | 0.066 µM | 0.0647 µM | 96
CN1CCc2cc(O)c(O)c3c2C1Cc1ccccc1-3 (configuration not stated) | – | 0.401 µM | 0.397 µM | 0.045 µM | 0.0386 µM | 8.9
CN(C)CCc1cc(O)c(O)c2c1ccc1ccccc12 | – | 7.7 µM | 6.19 µM | 0.049 µM | 0.0385 µM | 157
COc1cc(CCN(C)C)c2ccc3ccccc3c2c1OC | – | 2.94 µM | 2.92 µM | 0.323 µM | 0.321 µM | 9.1
C[N+](C)(C)CCc1cc2c(c3c1ccc1ccccc13)OCO2 | inactive | – | – | – | – | –
CN1CCc2cc3c(c4c2C1Cc1ccccc1-4)OCO3 (racemic) [ROEMERINE] | – | 0.377 µM | 0.324 µM | 0.084 µM | – | 4.4

Source: ChEMBL document CHEMBL2413048, “3,4-Dihydroxy- and 3,4-methylenedioxy- phenanthrene-type alkaloids with high selectivity for D2 dopamine receptor” (Bioorg Med Chem Lett, 2013)
